{"source": "patent US20030144259A1", "about": "“Breast cancer hormonal therapy” (priority 2000, published 2003)", "origin": "cited, not measured here", "details": "human, in vivo; cited from earlier work"}
{"molecule": "CCC1(c2ccc(N)cc2)CCC(=O)NC1=O", "note": "(stereo not shown) [aminoglutethimide]", "values": [{"measurement": "dizziness", "result": 15, "unit": "%"}, {"measurement": "lethargy", "result": 36, "unit": "%"}, {"measurement": "nausea and vomiting", "result": 10, "unit": "%"}, {"measurement": "patients requiring discontinuation of drug", "result": "about 5%"}, {"measurement": "patients with side effects", "result": "about 35%"}, {"measurement": "severe myelosuppression", "result": "less than 1%"}, {"measurement": "transient maculopapular rash", "result": 25, "unit": "%"}]}
